The numbers were not newly measured in patent publication US20090186826A1, “Cosmetic or dermopharmaceutical compositions of ceramides and polypeptides” (SEDERMA, priority 2003, published 2009), which cites them from elsewhere.

Where no end group is shown, it is not given here.

This data set has as its system fibroblasts. The note with it: reported by Senior et al. J. Cell Biol. 99, 870-874, 1984.

As for “VGVAPG [fragment of the protein called elastin]”, the chemotactic activity entry was “chemotactic activity”.
